From article PMC8904520, “Characterization of a small-molecule inhibitor targeting NEMO/IKKβ to suppress colorectal cancer growth” (Signal Transduction and Targeted Therapy, 2022)

Target: T1, NEMO/IKKβ interaction (GST-NEMO1–196 / biotinylated IKKβ peptide) (Homo sapiens, UniProt Q9Y6K9)
T1 construct: made in house; host or cells: E. coli BL21(DE3) (GST-NEMO)
Assay: FRET assay of NEMO/IKKβ binding
Details: 10 nM GST-NEMO1–196, 200 nM biotinylated IKKβ peptide, read-out: IC50 for impairing NEMO/IKKβ interaction
Protocol: A FRET assay was used to detect the effects of SHK on NEMO/IKKβ binding. 10 nM GST-NEMO1–196 was bound to 200 nM biotinylated IKKβ peptide in binding buffer (50 Mm Tris-HCl, 150 mM NaCl, and 1x cocktail, pH 7.4), and increasing amounts of SHK were titrated into the mixture, incubated for 30 min at room temperature. The detection agent (50 nM streptavidin-conjugated APC and 10 nM LANCE^TM Europium-W1024 labeled anti-GST, Perkin Elmer) was incubated for 30 min at room temperature, and the FRET signal was read on a multifunctional microplate reader (BioTek Synergy NEO).

T1 sequence (Q9Y6K9 1-196): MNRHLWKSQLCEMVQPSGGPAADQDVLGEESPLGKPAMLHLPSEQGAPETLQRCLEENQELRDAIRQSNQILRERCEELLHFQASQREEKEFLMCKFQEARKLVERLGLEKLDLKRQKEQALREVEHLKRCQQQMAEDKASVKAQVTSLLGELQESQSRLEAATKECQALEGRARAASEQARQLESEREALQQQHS

`CC(C)=CC[C@@H](O)C1=CC(=O)c2c(O)ccc(O)c2C1=O` [SHK, Shikonin] was tested, and the IC50 was 231 ± 9.39 nM.
